This is an account of results in US8530465B2, “1, 2-disubstituted amido-anthraquinone derivatives, preparation method and application thereof” (National Defense Medical Center, priority 2010, dated 2013).

For one data set, the system named is hTERT. The data set can be described thus: Secreted alkaline phosphatase (SEAP) assay, PhTERT-SEAP (H1299). The format is cell-based. The note with it: Homo sapiens, 24 hours; for activity at 1 µM: NCI-H1299, Conc. 1 μM, read-out: Relative SEAP activity (%); for activity at 10 µM: NCI-H1299, Conc. 10 μM; for activity at 10 µM / activity at 100 µM: read-out: Relative SEAP activity (%) (converted); for activity at 100 µM: NCI-H1299, Conc. 100 μM. The procedure: H1299 were grown in RPMI 1640 media supplemented with 10% fetal bovine serum, 100 units/mL penicillin and […] streptomycin in a humidified atmosphere with 5% CO2 at 37° C. Culture media were changed every three days. To establish stable cell lines that the expression of hTERT could be monitored by a reporter system, a about 3.3 kbp DNA fragment ranging from −3338 to +1 bp of the hTERT gene (hTERT promoter, PhTERT) was subcloned upstream to a secreted alkaline phosphatase gene (SEAP) and transfected into H1299 by electroporation. The stable clones were selected using G418. The stable clones derived from H1299 were cultured using conditions that are similar to their parental cells.
Secreted alkaline phosphatase was used as the reporter system to monitor the transcriptional activity of hTERT. Here, about 10^4 cells each were grown in 96-well plates and incubated at 37° C. for 24 hours and changed with fresh media. Varying amounts of drugs were added and cells were incubated for another 24 hours. Culture media were collected and heated at 65° C. for 10 min to inactivate heat-labile phosphatases. An equal amount of SEAP buffer (2 M diethanolamine, 1 mM MgCl2, and 20 mM L-homoarginine) was added to the media and p-nitrophenyl phosphate was added to a final concentration of 12 mM. Absorptions at 405 nm were taken, and the rate of absorption increase is determined (the increasing rate of absorbance at 405 nm was used to represent the activity of SEAP).

Data set [1] in a line: MTT assay, PhTERT-SEAP (H1299). The format is cell-based, human. Particulars: human, H1299 cells carrying the PhTERT-SEAP reporter, PhTERT-SEAP (H1299); for viability at 1 μM: Conc. 1 μM, read-out: Relative MTT viability (%); for viability at 10 μM: Conc. 10 μM; for viability at 10 μM / viability at 100 μM: read-out: Relative MTT viability (%) (converted); for viability at 100 μM: Conc. 100 μM. Here is the method:
Further, cells were subjected to MTT assay to compare the relative toxicity or effect of each compound on cell proliferation and activity.
The above-described cells are cultured in a 96-well plate, to which was added with 25 μl MTT solution, and cultured in a 37° C. carbon dioxide incubator for 4 hours. Then, 100 μl Lysis buffer is added and incubated in a 37° C. carbon dioxide incubator overnight. An ELISA reader (Bio-Rad Model 450) is used to read optical density (O.D.) at 550 nm.
On the technique in general: Tetrazolium assays rely on reduction of a dye to a coloured formazan, in cell work by metabolically active cells.

Structures are written as SMILES.

In the case of `Nc1ccc2c(c1N)C(=O)c1ccccc1C2=O` [1,2-diaminoanthraquinone, reference compound], in the data set on hTERT, the activity at 1 µM was 98.5 ± 11.7%, the activity at 10 µM is 77.3% and the activity at 100 µM is 18.2%.

With `O=C(CCCl)Nc1ccc2c(c1NC(=O)CCCl)C(=O)c1ccccc1C2=O` [CC-02, 1,2-bis-(3-chloropropionamido)-anthraquinone], the melting point was in the range of 179 to 180 °C. In addition, in the data set with hTERT, the activity at 1 µM amounted to 96.3 ± 3.31%, the activity at 10 µM was 94.7% and the activity at 100 µM was 16%. In data set [1], the viability at 1 μM is 101 ± 4.37%, the viability at 10 μM was 83.8% and the viability at 100 μM is 5.38%.

As for `O=C(CCCCl)Nc1ccc2c(c1NC(=O)CCCCl)C(=O)c1ccccc1C2=O` [CC-03, 1,2-bis-(4-chlorobutyramido)-anthraquinone], the melting point is 154 to 155 °C. For the same compound, in the data set on hTERT, the activity at 1 µM turned out to be 114 ± 6.14%, the activity at 10 µM was 92.9% and the activity at 100 µM was 15.2%. Also, in data set [1], the viability at 1 μM was determined as 103 ± 7.01%, the viability at 10 μM is 79.9% and the viability at 100 μM was 19%.

Consider `Nc1c(NC(=O)CCl)ccc2c1C(=O)c1ccccc1C2=O` [CC-05, 1-(amino)-2-(chloroacetamido)-anthraquinone], for which the melting point is 193 to 194 °C. Besides, in the data set with hTERT, the activity at 1 µM is 42 ± 4.16%, the activity at 10 µM was 6.73 ± 0.83% and the activity at 100 µM was 3.23 ± 1.22%. The viability at 1 μM in data set [1] is 64.3 ± 8.97%.

The compound `O=C(CCl)Nc1ccc2c(c1NC(=O)CCCl)C(=O)c1ccccc1C2=O` [CC-07, 1-[(3-chloropropanyl)amido]-2-(chloroacetamido)-anthraquinone] gave a melting point of 182 to 183 °C. In the data set with hTERT, the activity at 1 µM amounted to 114 ± 6.14%, the activity at 10 µM is 92.9% and the activity at 100 µM is 15.2%. In data set [1], the viability at 1 μM amounted to 103 ± 7.01%, the viability at 10 μM is 79.9% and the viability at 100 μM was 19%.

On to `O=C(CCl)Nc1ccc2c(c1NC(=O)CCCCl)C(=O)c1ccccc1C2=O` [CC-08, 1-[(4-chlorobutanyl)amido]-2-(chloroacetamido)-anthraquinone], for which the melting point is 163 to 164 °C. Further, in the data set on hTERT, the activity at 1 µM amounted to 108 ± 9.03%, the activity at 10 µM is 97.1% and the activity at 100 µM was 30.9%. In data set [1], the viability at 1 μM worked out at 100 ± 4.4%, the viability at 10 μM was 117% and the viability at 100 μM was 62%.

`O=C(CCl)Nc1ccc2c(c1NC(=O)c1ccccc1)C(=O)c1ccccc1C2=O` [CC-09, 1-(benzamido)-2-(chloroacetamido)-anthraquinone] showed a melting point of 203 to 204 °C. In the data set on hTERT, the activity at 1 µM turned out to be 96.3 ± 3.31%, the activity at 10 µM was 94.7% and the activity at 100 µM was 16%. Moreover, in data set [1], the viability at 1 μM was found to be 101 ± 4.37%, the viability at 10 μM is 83.8% and the viability at 100 μM is 5.38%.

For `Cc1ccccc1C(=O)Nc1c(NC(=O)CCl)ccc2c1C(=O)c1ccccc1C2=O` [CC-10, 1-(2-methylbenzamido)-2-(chloroacetamido)-anthraquinone], the melting point was in the range of 179 to 180 °C. Besides, in the data set on hTERT, the activity at 1 µM came to 98.6 ± 7.92%, the activity at 10 µM was -3.13% and the activity at 100 µM was -5.69%. In data set [1], the viability at 1 μM worked out at 73.8 ± 7.94%.

As to `Cc1cccc(C(=O)Nc2c(NC(=O)CCl)ccc3c2C(=O)c2ccccc2C3=O)c1` [CC-11, 1-(3-methylbenzamido)-2-(chloroacetamido)-anthraquinone], the melting point is 202 to 203 °C. Besides, in the data set on hTERT, the activity at 1 µM came to 116 ± 14.8%, the activity at 10 µM is -1.91% and the activity at 100 µM is -3.1%. Also, in data set [1], the viability at 1 μM was 72.8 ± 3.83% and the viability at 10 μM is 0.7%.

With `O=C(CCl)Nc1ccc2c(c1NC(=O)c1ccccc1F)C(=O)c1ccccc1C2=O` [CC-13, 1-(2-fluorobenzamido)-2-(chloroacetamido)-anthraquinone], the melting point lay in the range of 245 to 246 °C. In the data set on hTERT, the activity at 1 µM came to 105 ± 12.7%, the activity at 10 µM was 5.89% and the activity at 100 µM is 2.11%. Also, in data set [1], the viability at 1 μM stood at 78.8 ± 7.83% and the viability at 10 μM is 2.77%.

Turning to `O=C(CCl)Nc1ccc2c(c1NC(=O)c1ccccc1Cl)C(=O)c1ccccc1C2=O` [CC-16, 1-(2-chlorobenzamido)-2-(chloroacetamido)-anthraquinone], the melting point lay in the range of 193 to 194 °C. For the same compound, in the data set on hTERT, the activity at 1 µM stood at 81.6 ± 48.2%, the activity at 10 µM is 5.35% and the activity at 100 µM was 1.23%. Further, in data set [1], the viability at 1 μM worked out at 102 ± 4.26% and the viability at 10 μM was 6.63%.

On to `O=C(CCl)Nc1ccc2c(c1NC(=O)c1cccc(Cl)c1)C(=O)c1ccccc1C2=O` [CC-17, 1-(3-chlorobenzamido)-2-(chloroacetamido)-anthraquinone], for which the melting point lay in the range of 188 to 189 °C. Besides, in the data set with hTERT, the activity at 1 µM amounted to 80.9 ± 3.9%, the activity at 10 µM was 6.65% and the activity at 100 µM was 3.51%. Also, in data set [1], the viability at 1 μM was determined as 89.7 ± 2.74% and the viability at 10 μM was 5.08%.

Compound `O=C(CCl)Nc1ccc2c(c1NC(=O)c1ccc(Cl)cc1)C(=O)c1ccccc1C2=O` [CC-18, 1-(4-chlorobenzamido)-2-(chloroacetamido)-anthraquinone] yielded a melting point of 224 to 225 °C. Further, in the data set on hTERT, the activity at 1 µM worked out at 98.7 ± 5.6%, the activity at 10 µM was 6.26% and the activity at 100 µM was 4.95%. For the same compound, in data set [1], the viability at 1 μM was determined as 92.4 ± 7.16%, the viability at 10 μM was 5.17% and the viability at 100 μM was 4.25%.

For `O=C(CCl)Nc1ccc2c(c1NC(=O)c1ccccc1C(F)(F)F)C(=O)c1ccccc1C2=O` [CC-19, 1-[2-(trifluoromethyl)benzamido]-2-(chloroacetamido)-anthraquinone], the melting point was in the range of 248 to 250 °C. Moreover, in the data set with hTERT, the activity at 1 µM was found to be 93.5 ± 6.11%, the activity at 10 µM is 4.89% and the activity at 100 µM is 2.4%. Also, in data set [1], the viability at 1 μM stood at 93.2 ± 2.95% and the viability at 10 μM was 3.42%.

For the compound `O=C(CCl)Nc1ccc2c(c1NC(=O)c1cccc(C(F)(F)F)c1)C(=O)c1ccccc1C2=O` [CC-20, 1-[3-(trifluoromethyl)benzamido]-2-(chloroacetamido)-anthraquinone], the melting point was 190 to 191 °C. Besides, in the data set on hTERT, the activity at 1 µM came to 99.8 ± 4.15%, the activity at 10 µM was 4.53% and the activity at 100 µM was 0.32%. Moreover, in data set [1], the viability at 1 μM came out at 94.7 ± 3.59%, the viability at 10 μM was 5.15% and the viability at 100 μM was 3.37%.

The compound `O=C(CCl)Nc1ccc2c(c1NC(=O)c1ccc(C(F)(F)F)cc1)C(=O)c1ccccc1C2=O` [CC-21, 1-[4-(trifluoromethyl)benzamido]-2-(chloroacetamido)-anthraquinone] gave a melting point of 203 to 204 °C. In addition, in the data set with hTERT, the activity at 1 µM came to 85.9 ± 8%, the activity at 10 µM is 8.61 ± 0.0611% and the activity at 100 µM was 6.49%. Also, in data set [1], the viability at 1 μM was 86.3 ± 2.6% and the viability at 10 μM is 6.58%.

`O=C(CCl)Nc1ccc2c(c1NC(=O)c1cc(C(F)(F)F)ccc1C(F)(F)F)C(=O)c1ccccc1C2=O` [CC-22, 1-1-[2,5-bis-(trifluoromethyl)benzamido]-2-(chloroacetamido)-anthraquinone] gave a melting point of 187 to 188 °C. Besides, in the data set with hTERT, the activity at 1 µM is 90.3 ± 1.77%, the activity at 10 µM is 5.11% and the activity at 100 µM is 4.11%. Moreover, in data set [1], the viability at 1 μM worked out at 86.7 ± 2.13% and the viability at 10 μM is 8.81%.

`O=C(CCl)Nc1ccc2c(c1NC(=O)c1cccs1)C(=O)c1ccccc1C2=O` [CC-28, 1-[(2-thiophenecarbonyl)amino]-2-(chloroacetamido)-anthraquinone]: the melting point was in the range of 190 to 191 °C. Further, in the data set on hTERT, the activity at 1 µM worked out at 5.81 ± 23.3%, the activity at 10 µM is 3.03% and the activity at 100 µM is 2.2%.

On to `O=C1c2c(O)ccc(O)c2C(=O)c2c(NCCNCCO)ccc(NCCNCCO)c21` [mitoxantrone, reference compound], for which, in the data set on hTERT, the activity at 1 µM worked out at 20.8 ± 1.56%, the activity at 10 µM is 9.92% and the activity at 100 µM was 7.19%.

A word on the viability: it is a read-out of living cells in per cent, often relative to untreated cells. One may read the melting point as the temperature of the solid-liquid transition.
